US11414424B2, “Cardiac sarcomere inhibitors” (Cytokinetics, Inc., priority 2018, dated 2022)

Test system: bovine cardiac myofibrils
Experiment: Myofibril assay: PK/LDH-coupled steady-state ATPase activity of skinned bovine cardiac myofibrils
Format: biochemical
Conditions: Ca2+ activating to 75% of maximal rate
In short: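 Steady-state ATPase of detergent-skinned bovine left-ventricular myofibrils (1 mg/mL), PK/LDH-coupled NADH read at 340 nm, in PIPES/MgCl2 buffer pH 6.8 with 50 μM ATP, 0.6 mM EGTA and CaCl2 set for 50% or 75% activation. Inhibition of activity measured.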

Row | Structure (SMILES) | CDMF75 IC15 [nM]
1 | CNC(=O)N1CC2(C1)C(=O)N(c1ccc(-c3noc(C(F)F)n3)cc1)CC(=O)N2Cc1ccc(C(F)(F)F)cc1 [Compound 165, 8-(4-(5-(difluoromethyl)-1,2,4-oxadiazol-3-yl)-phenyl)-N-methyl-6,9-dioxo-5-(4-(trifluoromethyl)-benzyl)-2,5,8-triazaspiro-[3.5]nonane-2-carboxamide] | 1400
2 | CNC(=O)N1CC2(C1)C(=O)N(c1ccc(Cl)c(C)c1)CC(=O)N2Cc1ccc(C(F)(F)F)cc1 [Compound 166, 8-(4-chloro-3-methyl-phenyl)-N-methyl-6,9-dioxo-5-(4-(trifluoromethyl)-benzyl)-2,5,8-triazaspiro-[3.5]nonane-2-carboxamide] | 2400
3 | CNC(=O)N1CC2(C1)C(=O)N(c1ccc(C#N)c(C)c1)CC(=O)N2Cc1ccc(C(F)(F)F)cc1 [Compound 167, 8-(4-cyano-3-methyl-phenyl)-N-methyl-6,9-dioxo-5-(4-(trifluoromethyl)-benzyl)-2,5,8-triazaspiro-[3.5]nonane-2-carboxamide] | 1300
4 | CNC(=O)N1CC2(C1)C(=O)N(c1ccc(Cl)cc1F)CC(=O)N2Cc1ccc(C(F)(F)F)cc1 [Compound 168, 8-(4-chloro-2-fluoro-phenyl)-N-methyl-6,9-dioxo-5-(4-(trifluoro-methyl)benzyl)-2,5,8-triazaspiro[3.5]nonane-2-carboxamide] | 300
5 | CNC(=O)N1CC2(C1)C(=O)N(c1ccc(C#N)cc1F)CC(=O)N2Cc1ccc(C(F)(F)F)cc1 [Compound 169, 8-(4-cyano-2-fluorophenyl)-N-methyl-6,9-dioxo-5-(4-(trifluoromethyl)benzyl)-2,5,8-triazaspiro[3.5]nonane-2-carboxamide] | 200
6 | CNC(=O)N1CC2(C1)C(=O)N(c1ccc(OC)c(F)c1)CC(=O)N2Cc1ccc(C(F)(F)F)cc1 [Compound 170, 8-(3-fluoro-4-methoxy-phenyl)-N-methyl-6,9-dioxo-5-(4-(trifluoromethyl)-benzyl)-2,5,8-triazaspiro-[3.5]nonane-2-carboxamide] | 2900
7 | CNC(=O)N1CC2(C1)C(=O)N(c1ccc(OC(F)F)c(F)c1)CC(=O)N2Cc1ccc(C(F)(F)F)cc1 [Compound 171, 8-(4-(difluoromethoxy)-3-fluorophenyl)-N-methyl-6,9-dioxo-5-(4-(trifluoromethyl)benzyl)-2,5/8-triazaspiro[3.5]-nonane-2-carboxamide] | 2000
8 | CNC(=O)N1CC2(C1)C(=O)N(c1ccc(C(=O)c3ccccc3)cc1)CC(=O)N2Cc1ccc(C(F)(F)F)cc1 [Compound 172, 8-(4-benzoylphenyl)-N-methyl-6,9-dioxo-5-(4-(trifluoromethyl)benzyl)-2,5,8-triazaspiro[3.5]-nonane-2-carboxamide] | 18500
9 | CNC(=O)N1CC2(C1)C(=O)N(c1ccc(C#N)cc1F)CC(=O)N2Cc1ccc(C2(C(F)(F)F)N=N2)cc1 [Compound 173, 8-(4-cyano-2-fluorophenyl)-N-methyl-6,9-dioxo-5-(4-(3-(trifluoromethyl)-3H-diazirin-3-yl)benzyl)-2,5,8-triazaspiro[3.5]nonane-2-carboxamide] | 600
10 | CC(C)C(=O)N1CC2(C1)C(=O)N(c1ccc(C#N)cc1F)CC(=O)N2Cc1ccc(C(F)(F)F)cc1 [Compound 174, 3-fluoro-4-(2-isobutyryl-6,9-dioxo-5-(4-(trifluoromethyl)benzyl)-2,5,8-triazaspiro[3.5]nonan-8-yl)benzonitrile] | 8000
11 | CC(=O)N1CC2(C1)C(=O)N(c1ccc(C#N)cc1F)CC(=O)N2Cc1ccc(Cl)cc1 [Compound 175, 4-(2-acetyl-5-(4-chlorobenzyl)-6,9-dioxo-2,5,8-triazaspiro[3.5]nonan-8-yl)-3-fluorobenzonitrile] | 1200
12 | CC(=O)N1CC2(C1)C(=O)N(c1ccc(C#N)cc1F)CC(=O)N2Cc1ccc(F)cc1 [Compound 176, 4-(2-acetyl-5-(4-fluoro-benzyl)-6,9-dioxo-2,5,8-triazaspiro[3.5]nonan-8-yl)-3-fluorobenzonitrile] | 8500
13 | CNC(=O)N1CC2(C1)C(=O)N(c1ccc3oc(=O)ccc3c1)CC(=O)N2Cc1ccc(C(F)(F)F)cc1 [Compound 177, N-methyl-6,9-dioxo-8-(2-oxo-2H-chromen-6-yl)-5-(4-(trifluoromethyl)benzyl)-2,5,8-triazaspiro[3.5]-nonane-2-carboxamide] | 1800
14 | C#Cc1ccc(N2CC(=O)N(Cc3ccc(C4(C(F)(F)F)N=N4)cc3)C3(CN(C(=O)NC)C3)C2=O)c(F)c1 [Compound 178, 8-(4-ethynyl-2-fluoro-phenyl)-N-methyl-6,9-dioxo-5-(4-(3-(trifluoromethyl)-3H-diazirin-3-yl)benzyl)-2,5,8-triazaspiro[3.5]nonane-2-carboxamide] | 800
15 | N#Cc1ccc(N2CC(=O)N(Cc3ccc(C(F)(F)F)cc3)C3(CN(C(=O)C4CCC4)C3)C2=O)c(F)c1 [Compound 180, 4-(2-(cyclobutanecarbonyl)-6,9-dioxo-5-(4-(trifluoromethyl)benzyl)-2,5,8-triazaspiro[3.5]nonan-8-yl)-3-fluorobenzonitrile] | 1600
16 | CNC(=O)N1CC2(C1)C(=O)N(c1ccc3oc(=O)ccc3c1)CC(=O)N2Cc1ccc(C2(C(F)(F)F)N=N2)cc1 [Compound 181, N-methyl-6,9-dioxo-8-(2-oxo-2H-chromen-6-yl)-5-(4-(3-(trifluoromethyl)-3H-diazirin-3-yl)benzyl)-2,5,8-triazaspiro[3.5]-nonane-2-carboxamide] | 6200
17 | CC(=O)N1CC2(C1)C(=O)N(c1ncc(Cl)cc1F)CC(=O)N2Cc1ccc(Cl)cc1 [Compound 182, 2-acetyl-8-(5-chloro-3-fluoropyridin-2-yl)-5-(4-chlorobenzyl)-2,5,8-triazaspiro[3.5]nonane-6,9-dione] | 2900
18 | CNC(=O)N1CCC2(C1)C(=O)N(c1ccc(C#N)cc1)CC(=O)N2Cc1ccc(C(F)(F)F)cc1 (stereo not drawn) [Compound 183, 9-(4-cyanophenyl)-N-methyl-7,10-dioxo-6-(4-(trifluoromethyl)benzyl)-2,6,9-triazaspiro[4.5]-decane-2-carboxamide] | 4600
19 | CNC(=O)N1CCC2(C1)C(=O)N(c1ccc(C#N)nc1)CC(=O)N2Cc1ccc(C(F)(F)F)cc1 (stereo not drawn) [Compound 184, 9-(6-cyanopyridin-3-yl)-N-methyl-7,10-dioxo-6-(4-(trifluoromethyl)benzyl)-2,6,9-triazaspiro[4.5]-decane-2-carboxamide] | 25500
20 | CNC(=O)N1CCC2(C1)C(=O)N(c1ccc(C#N)cc1)CC(=O)N2Cc1ccc(Cl)cc1 (stereo not drawn) [Compound 185, 6-(4-chlorobenzyl)-9-(4-cyanophenyl)-N-methyl-7,10-dioxo-2,6,9-triazaspiro[4.5]decane-2-carboxamide] | 3200
21 | CC(=O)N1CC2(C1)C(=O)N(c1ccc(C#N)cc1)CC(=O)N2Cc1ccc(C(F)(F)F)cc1 [Compound 186, 4-(2-acetyl-6,9-dioxo-5-(4-(trifluoromethyl)benzyl)-2,5,8-triazaspiro[3.5]nonan-8-yl)benzonitrile] | 15800
22 | CCC(=O)N1CC2(C1)C(=O)N(c1ccc(C#N)cc1)CC(=O)N2Cc1ccc(C(F)(F)F)cc1 [Compound 187, 4-(6,9-dioxo-2-propionyl-5-(4-(trifluoromethyl)benzyl)-2,5,8-triazaspiro[3.5]nonan-8-yl)benzonitrile] | 15900
23 | COC(=O)N1CC2(C1)C(=O)N(c1ccc(C#N)cc1)CC(=O)N2Cc1ccc(C(F)(F)F)cc1 [Compound 188, methyl 8-(4-cyanophenyl)-6,9-dioxo-5-(4-(trifluoromethyl)benzyl)-2,5,8-triazaspiro[3.5]-nonane-2-carboxylate] | 2600
24 | CNC(=S)N1CC2(C1)C(=O)N(c1ccc(C#N)cc1)CC(=O)N2Cc1ccc(C(F)(F)F)cc1 [Compound 189, 8-(4-cyanophenyl)-N-methyl-6,9-dioxo-5-(4-(trifluoromethyl)benzyl)-2,5,8-triazaspiro[3.5]-nonane-2-carbothioamide] | 1400
25 | N#Cc1ccc(N2CC(=O)N(Cc3ccc(C(F)(F)F)cc3)C3(CN(C=O)C3)C2=O)cc1 [Compound 190, 4-(2-formyl-6,9-dioxo-5-(4-(trifluoromethyl)benzyl)-2,5,8-triazaspiro[3.5]nonan-8-yl)benzonitrile] | 4000
26 | N#Cc1ccc(N2CC(=O)N(Cc3ccc(C(F)(F)F)cc3)C3(CN(CC(F)F)C3)C2=O)cc1 [Compound 191, 4-(2-(2,2-difluoroethyl)-6,9-dioxo-5-(4-(trifluoromethyl)benzyl)-2,5,8-triazaspiro[3.5]nonan-8-yl)benzonitrile] | 14300
27 | N#Cc1ccc(N2CC(=O)N(Cc3ccc(C(F)(F)F)cc3)C3(CN(c4ccc(C#N)cn4)C3)C2=O)cc1 [Compound 192, 6-(8-(4-cyanophenyl)-6,9-dioxo-5-(4-(trifluoromethyl)benzyl)-2,5,8-triazaspiro[3.5]nonan-2-yl)nicotinonitrile] | 600
28 | N#Cc1ccc(N2CC(=O)N(Cc3ccc(C(F)(F)F)cc3)C3(CN(CC(F)F)C3)C2=O)cc1F [Compound 193, 4-(2-(2,2-difluoroethyl)-6,9-dioxo-5-(4-(trifluoromethyl)benzyl)-2,5,8-triazaspiro[3.5]nonan-8-yl)-2-fluorobenzonitrile] | 1700
29 | N#Cc1ccc(N2CC(=O)N(Cc3ccc(C(F)(F)F)cc3)C3(CN(C=O)C3)C2=O)cc1F [Compound 194, 2-fluoro-4-(2-formyl-6,9-dioxo-5-(4-(trifluoromethyl)benzyl)-2,5,8-triazaspiro[3.5]nonan-8-yl)benzonitrile] | 400
30 | CNC(=S)N1CC2(C1)C(=O)N(c1ccc(C#N)c(F)c1)CC(=O)N2Cc1ccc(C(F)(F)F)cc1 [Compound 195, 8-(4-cyano-3-fluorophenyl)-N-methyl-6,9-dioxo-5-(4-(trifluoromethyl)benzyl)-2,5,8-triazaspiro[3.5]nonane-2-carbothioamide] | 400
